In test [1] the test system is cholesteryl ester hydrolysis and synthesis (acyl-CoA: cholesterol-acyltransferase). The conditions noted are these: cited from earlier work.
In test [2] the test system is cholesterol and triglycerides. The experiment in a line: hyperlipidemie test induced in the rat by the administration of Triton WR 1330. The class given is in vivo. To be noted: Triton induced hyperlipidemia, at the minimum dose of 37.5 mg/kg p.os. An excerpt: The bis(pyridyl-3-carboxilate) esters of formula (I) show an antidislipemic activity higher than that of nicotinic acid.

Test [3] has as its system levels of acetylcholine in the cortex. The experiment in a line: experimental model in the mouse of the presinaptic neurochemical damage of Alzheimer disease (Mantione). To be noted: Alzheimer model (Mantione et al.). The class given is in vivo.

On to `CCCCC/C=C\C/C=C\CCCCCCCC(=O)OC[C@H](COP(=O)([O-])OCC[N+](C)(C)C)OC(=O)CCCCCCC/C=C\C/C=C\CCCCC` [polienoic phosphatidylcholine, glyceril phosphorylcholine Dilinoleate], for which, in test [1], the anti-aterogenic action result was “An anti-aterogenic action”, the “hydrolysis of cholesteryl ester” value is listed as “an increase of the hydrolysis of cholesteryl ester” and the “synthesis of cholesteryl esters from acyl-CoA: cholesterol-acyltransferase” value is “a reduction of the synthesis of cholesteryl esters”.

Take `C[N+](C)(C)CCOP(=O)([O-])OC[C@@H](COC(=O)c1cccnc1)OC(=O)c1cccnc1` [optically active form L(alpha), L(alpha) glycerylphosphorylcholine bis(pyridyl-3-carboxilate)]: in test [2], the inhibition of cholesterol is 50% and the inhibition of triglycerides is 50%.

“L(alpha) glycerylphosphorylcholine bis(pyridyl-3-carboxilate) calcium salt”: the “inhibition of the regional diminution of the levels of acetylcholine in the cortex” value in test [3] is on record as “inhibits, in a dose-answer form, the regional diminution of the levels of acetylcholine in the cortex”.

These data come from patent publication US4699901A, “Diacyl derivatives of glycerylphosphorylcholine, their preparation, and antihyperlipidemic compositions” (Neopharmed SpA, priority 1984, dated 1987).
